Measured values as given in patent US20080234262A1 (Wyeth, priority 2007, published 2008).
Like-named read-outs stand apart in the source and are kept apart here.

What was measured:
[1] = test system: breast line MDA468; experiment: In vitro cell culture growth assay (MTS), MDA468; type: cell-based, human; details: MDA468 cells, three days after drug treatment
Procedure, shortened: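 Three-day drug treatment starting 1 day post-plating; viable cells quantified via MTS metabolism (A490); effect normalised to in-plate vehicle controls as % growth.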

[2] = target: PI3K (Homo sapiens, UniProt P42336); experiment: Fluorescence polarization assay for PI3K; type: biochemical;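 further: PI3K kinase reaction on PIP2 with ATP, 30-60 min, product sensed by GST-GRP with red probe in fluorescence polarization (mP), controls without enzyme and at zero time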
PI3K, sequence (P42336 whole entry): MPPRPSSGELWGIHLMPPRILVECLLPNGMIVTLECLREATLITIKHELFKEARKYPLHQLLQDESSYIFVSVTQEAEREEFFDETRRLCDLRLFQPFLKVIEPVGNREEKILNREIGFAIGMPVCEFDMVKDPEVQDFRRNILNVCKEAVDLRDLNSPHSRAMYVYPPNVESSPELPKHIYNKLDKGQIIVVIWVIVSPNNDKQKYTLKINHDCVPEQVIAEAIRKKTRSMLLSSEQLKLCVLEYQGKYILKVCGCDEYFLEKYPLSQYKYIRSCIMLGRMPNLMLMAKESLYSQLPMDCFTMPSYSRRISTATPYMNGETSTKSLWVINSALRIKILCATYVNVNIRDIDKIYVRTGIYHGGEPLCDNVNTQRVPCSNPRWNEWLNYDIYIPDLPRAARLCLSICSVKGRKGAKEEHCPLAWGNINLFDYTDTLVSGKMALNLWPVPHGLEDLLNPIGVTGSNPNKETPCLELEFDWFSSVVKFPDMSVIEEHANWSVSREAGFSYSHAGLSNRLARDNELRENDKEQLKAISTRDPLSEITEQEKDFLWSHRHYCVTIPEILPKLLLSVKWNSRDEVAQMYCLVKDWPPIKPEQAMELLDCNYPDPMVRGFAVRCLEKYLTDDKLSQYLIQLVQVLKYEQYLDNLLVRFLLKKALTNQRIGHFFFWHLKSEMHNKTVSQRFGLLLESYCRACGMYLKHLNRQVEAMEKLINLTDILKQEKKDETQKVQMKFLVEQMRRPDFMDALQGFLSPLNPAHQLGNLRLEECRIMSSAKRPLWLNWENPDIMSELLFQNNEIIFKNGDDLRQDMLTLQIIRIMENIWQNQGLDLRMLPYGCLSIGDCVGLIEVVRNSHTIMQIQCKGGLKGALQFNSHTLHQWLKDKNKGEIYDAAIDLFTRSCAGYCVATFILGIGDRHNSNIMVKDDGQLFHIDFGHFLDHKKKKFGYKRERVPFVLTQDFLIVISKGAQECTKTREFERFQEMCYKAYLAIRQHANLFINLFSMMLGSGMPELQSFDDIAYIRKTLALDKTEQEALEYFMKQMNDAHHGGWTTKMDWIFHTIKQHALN
PI3K, sequence (P27986 whole entry partner): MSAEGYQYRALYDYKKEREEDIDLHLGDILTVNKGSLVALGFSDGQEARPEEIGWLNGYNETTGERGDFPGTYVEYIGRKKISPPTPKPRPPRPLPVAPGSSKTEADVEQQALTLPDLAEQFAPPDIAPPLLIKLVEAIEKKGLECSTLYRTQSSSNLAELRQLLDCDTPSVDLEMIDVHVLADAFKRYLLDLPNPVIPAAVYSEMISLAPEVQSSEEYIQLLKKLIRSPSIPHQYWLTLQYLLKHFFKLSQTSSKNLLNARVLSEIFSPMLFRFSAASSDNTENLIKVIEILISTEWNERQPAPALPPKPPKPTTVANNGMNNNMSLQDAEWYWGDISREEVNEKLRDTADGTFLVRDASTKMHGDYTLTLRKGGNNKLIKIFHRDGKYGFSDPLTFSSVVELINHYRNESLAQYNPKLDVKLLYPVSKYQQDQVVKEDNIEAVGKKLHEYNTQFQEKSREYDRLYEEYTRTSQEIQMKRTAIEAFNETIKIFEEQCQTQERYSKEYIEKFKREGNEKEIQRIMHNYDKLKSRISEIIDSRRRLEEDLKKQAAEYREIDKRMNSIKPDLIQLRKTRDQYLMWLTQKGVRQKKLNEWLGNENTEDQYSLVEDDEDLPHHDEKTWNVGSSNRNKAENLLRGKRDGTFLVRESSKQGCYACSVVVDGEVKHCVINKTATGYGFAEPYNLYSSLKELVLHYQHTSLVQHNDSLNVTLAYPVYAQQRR

[3] = test system: prostate line LNCap; experiment: In vitro cell culture growth assay (MTS), LNCap; type: cell-based, human; details: LNCap cells, three days after drug treatment;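 further: viable cell density read by absorbance at 490 nm, growth expressed as percent of vehicle-treated cells on the same plate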

Structure (SMILES) | IC50 ([1]; Homo sapiens, 72 h) [nM] | IC50 ([2]; PI3Kα, read-out: PI3Kα IC50) [nM] | IC50 ([3]; Homo sapiens, LNCaP, 72 h) [nM] | IC50 ([2]; PI3Kα IC50, PI3Kα) [nM] | IC50 ([3]; Homo sapiens, 72 h) [nM] | IC50 [1] [nM] | IC50 [3] [nM]
Clc1ccc(CN2CCC(n3ncc4c(N5CCOCC5)nc(-c5ccc6[nH]ccc6c5)nc43)CC2)cn1 [Compound 174, 1-{1-[(6-chloropyridin-3-yl)methyl]piperidin-4-yl}-6-(1H-indol-5-yl)-4-orpholin-4-yl-1H-pyrazolo[3,4-d]pyrimidine] | 2800 | 304 | 1000 | – | – | – | –
CC(C)(C)OC(=O)N1CCC(n2ncc3c(N4CCOCC4)nc(-c4ccc(NC(=O)Nc5ccccn5)cc4)nc32)CC1 [Compound 769, tert-butyl 4-(4-morpholin-4-yl-6-{4-[(pyridin-2-ylcarbamoyl)amino]phenyl}-1H-pyrazolo[3,4-d]pyrimidin-1-yl)piperidine-1-carboxylate] | 7000 | 2190 | 3500 | – | – | – | –
CC(C)C(=O)N1CCC(n2ncc3c(N4CCOCC4)nc(-c4ccc(NC(=O)NC5CC5)cc4)nc32)CC1 [Compound 824, 1-cyclopropyl-3-{4-[1-(1-isobutyrylpiperidin-4-yl)-4-morpholin-4-yl-1H-pyrazolo[3,4-d]pyrimidin-6-yl]phenyl}urea] | 700 | 2030 | 110 | – | – | – | –
CNC(=O)Nc1ccc(-c2nc(N3CCOCC3)c3cnn(C4CCN(C(=O)c5cccnc5Cl)CC4)c3n2)cc1 [Compound 425, 1-[4-(1-{1-[(2-chloropyridin-3-yl)carbonyl]piperidin-4-yl}-4-morpholin-4-yl-1H-pyrazolo[3,4-d]pyrimidin-6-yl)phenyl]-3-methylurea] | 500 | 100 | 80 | – | – | – | –
CCOC(=O)N1CCC(n2ncc3c(N4CCOCC4)nc(-c4ccc(NC(=O)Nc5ccccc5)cc4)nc32)CC1 [Compound 814, ethyl 4-(6-{4-[(anilinocarbonyl)amino]phenyl}-4-morpholin-4-yl-1H-pyrazolo[3,4-d]pyrimidin-1-yl)piperidine-1-carboxylate] | < 27 | 34 | < 27 | – | – | – | –
O=C(Oc1ccccc1)N1CCC(n2ncc3c(N4CCOCC4)nc(-c4ccc5[nH]ccc5c4)nc32)CC1 [Compound 243, phenyl 4-[6-(1H-indol-5-yl)-4-morpholin-4-yl-1H-pyrazolo[3,4-d]pyrimidin-1-yl]piperidine-1-carboxylate] | 4300 | – | – | 535 | 1300 | – | –
Clc1cc(-c2nc(N3CCOCC3)c3cnn(C4CCN(Cc5ccccc5)CC4)c3n2)ccn1 [Compound 157] | 60000 | 1030 | 33000 | – | – | – | –
CNC(=O)Nc1ccc(-c2nc(N3CCOCC3)c3cnn([C@H]4CCCNC4)c3n2)cc1 [Compound 873, 1-methyl-3-(4-{4-morpholin-4-yl-1-[(3S)-piperidin-3-yl]-1H-pyrazolo[3,4-d]pyrimidin-6-yl}phenyl)urea] | 730 | 74 | 410 | – | – | – | –
CNC(=O)Nc1ccc(-c2nc(N3CCOCC3)c3cnn(C4CCN(C(=O)c5ccc(C#N)cc5)CC4)c3n2)cc1 [Compound 614, 1-(4-{1-[1-(4-cyanobenzoyl)piperidin-4-yl]-4-morpholin-4-yl-1H-pyrazolo[3,4-d]pyrimidin-6-yl}phenyl)-3-methylurea] | 220 | 89 | 150 | – | – | – | –
NC(=O)Nc1ccc(-c2nc(N3CCOCC3)c3cnn(C4CCN(Cc5cccnc5)CC4)c3n2)cc1 [Compound 558, 1-(4-{4-morpholin-4-yl-1-[1-(pyridin-3-ylmethyl)piperidin-4-yl]-1H-pyrazolo[3,4-d]pyrimidin-6-yl}phenyl)urea] | 200 | 82 | 200 | – | – | – | –
CNC(=O)Nc1ccc(-c2nc(N3CCOCC3)c3cnn(C4CCN(C(=O)OCc5ccccc5)CC4)c3n2)cc1 [Compound 880, benzyl 4-(6-{4-[(methylcarbamoyl)amino]phenyl}-4-morpholin-4-yl-1H-pyrazolo[3,4-d]pyrimidin-1-yl)piperidine-1-carboxylate] | 220 | 20 | 30 | – | – | – | –
CCOC(=O)CN1CCC(n2ncc3c(N4CCOCC4)nc(-c4ccc(NC(=O)NC)cc4)nc32)CC1 [Compound 795, ethyl [4-(6-{4-[(methylcarbamoyl)amino]phenyl}-4-morpholin-4-yl-1H-pyrazolo[3,4-d]pyrimidin-1-yl)piperidin-1-yl]acetate] | 420 | 158 | 102 | – | – | – | –
O=C1Cc2cc(-c3nc(N4CCOCC4)c4cnn(-c5ccccc5)c4n3)ccc2N1 [Compound 433, 5-(4-morpholin-4-yl-1-phenyl-1H-pyrazolo[3,4-d]pyrimidin-6-yl)-1,3-dihydro-2H-indol-2-one] | 60000 | 1030 | 60000 | – | – | – | –
O=C(CCO)Nc1ccc(-c2nc(N3CCOCC3)c3cnn(-c4ccccc4)c3n2)cc1 [Compound 139] | 60000 | 134 | 1500 | – | – | – | –
CC(C)(C)OC(=O)N1CCC(n2ncc3c(N4CCOCC4)nc(-c4ccc(NC(=O)Nc5ccc(CCO)cc5)cc4)nc32)CC1 [Compound 954, tert-butyl 4-{6-[4-({[4-(2-hydroxyethyl)phenyl]carbamoyl}amino)phenyl]-4-morpholin-4-yl-1H-pyrazolo[3,4-d]pyrimidin-1-yl}piperidine-1-carboxylate] | 100 | 10 | 9 | – | – | – | –
COC(=O)Nc1ccc(-c2nc(N3CCOC(C)C3)c3cnn(C4CCN(C(=O)OC)CC4)c3n2)cc1 (stereo not shown) [Compound 840, methyl 4-[6-{4-[(methoxycarbonyl)amino]phenyl}-4-(2-methylmorpholin-4-yl)-1H-pyrazolo[3,4-d]pyrimidin-1-yl]piperidine-1-carboxylate] | 10000 | 3550 | 3200 | – | – | – | –
CNC(=O)Nc1ccc(-c2nc(N3CCOCC3)c3cnn(C4CCN(C(=O)c5cccnc5)CC4)c3n2)cn1 [Compound 480, 1-methyl-3-(5-{4-morpholin-4-yl-1-[1-(pyridin-3-ylcarbonyl)piperidin-4-yl]-1H-pyrazolo[3,4-d]pyrimidin-6-yl}pyridin-2-yl)urea] | 1200 | 42 | 800 | – | – | – | –
C=COC(=O)N1CCC(n2ncc3c(N4CCOCC4)nc(-c4ccc(NC(=O)NC)cc4)nc32)CC1 [Compound 753, vinyl 4-(6-{4-[(methylcarbamoyl)amino]phenyl}-4-morpholin-4-yl-1H-pyrazolo[3,4-d]pyrimidin-1-yl)piperidine-1-carboxylate] | 110 | 100 | 47 | – | – | – | –
c1ccc(-n2ncc3c(N4CCOCC4)nc(-c4cc5ccccc5[nH]4)nc32)cc1 [Compound 111, 6-(1H-indol-2-yl)-4-morpholin-4-yl-1-phenyl-1H-pyrazolo[3,4-d]pyrimidine] | 23000 | 1010 | 12000 | – | – | – | –
CNC(=O)Nc1ccc(-c2nc(N3CCOCC3)c3cnn(C4CCN(Cc5cnccc5OC)CC4)c3n2)cc1 [Compound 636, 1-[4-(1-{1-[(4-methoxypyridin-3-yl)methyl]piperidin-4-yl}-4-morpholin-4-yl-1H-pyrazolo[3,4-d]pyrimidin-6-yl)phenyl]-3-methylurea] | – | 82 | – | – | – | 220 | 70
C=CC(=O)N1CCC(n2ncc3c(N4CCOCC4)nc(-c4ccc(NC(=O)NC)cc4)nc32)CC1 [Compound 758, 1-{4-[1-(1-acryloylpiperidin-4-yl)-4-morpholin-4-yl-1H-pyrazolo[3,4-d]pyrimidin-6-yl]phenyl}-3-methylurea] | 300 | 98 | 370 | – | – | – | –
O=C(O)CCC(=O)Nc1ccc(-c2nc(N3CCOCC3)c3cnn(C4CCN(Cc5ccccc5)CC4)c3n2)cc1 [Compound 81] | 45000 | 3680 | 60000 | – | – | – | –
CNC(=O)Nc1ccc(-c2nc(N3CCOCC3)c3cnn(C4CC[S+]([O-])CC4)c3n2)cc1 (stereo not shown) [Compound 868, 1-methyl-3-{4-[4-morpholin-4-yl-1-(1-oxidotetrahydro-2H-thiopyran-4-yl)-1H-pyrazolo[3,4-d]pyrimidin-6-yl]phenyl}urea] | 720 | 80 | 1200 | – | – | – | –
COC(=O)N1CCC(n2ncc3c(N4CCOCC4)nc(-c4ccc(NC(=O)Nc5ccc(CO)cc5)cc4)nc32)CC1 [Compound 912, methyl 4-{6-[4-({[4-(hydroxymethyl)phenyl]carbamoyl}amino)phenyl]-4-morpholin-4-yl-1H-pyrazolo[3,4-d]pyrimidin-1-yl}piperidine-1-carboxylate] | < 0.8 | – | < 0.8 | – | – | – | –
COC(=O)Nc1ccc(-c2nc(N3CCOCC3)c3cnn(C4CCN(C(=O)OC)CC4)c3n2)cc1 [Compound 740, methyl 4-(6-{4-[(methoxycarbonyl)amino]phenyl}-4-morpholin-4-yl-1H-pyrazolo[3,4-d]pyrimidin-1-yl)piperidine-1-carboxylate] | 1300 | – | 310 | – | – | – | –
COC(=O)Nc1ccc(-c2nc(N3CCOCC3)c3cnn(C4CCN(C(=O)OC)CC4)c3n2)cc1 [Compound 739, methyl 4-(6-{4-[(methoxycarbonyl)amino]phenyl}-4-morpholin-4-yl-1H-pyrazolo[3,4-d]pyrimidin-1-yl)piperidine-1-carboxylate] | 1750 | – | 400 | – | – | – | –
Nc1ncc(-c2nc(N3CCOCC3)c3cnn(C4CCN(Cc5ccccc5)CC4)c3n2)cn1 [Compound 191] | 400 | – | 80 | – | – | – | –
O=C(c1cccnc1)N1CCC(n2ncc3c(N4CCOCC4)nc(-c4cccc(O)c4)nc32)CC1 [Compound 24, 3-{4-morpholin-4-yl-1-[1-(pyridin-3-ylcarbonyl)piperidin-4-yl]-1H-pyrazolo[3,4-d]pyrimidin-6-yl}phenol] | 700 | – | 200 | – | – | – | –
